Assay results published in patent publication US20060154990A1, “Use of MEK inhibitors in treating abnormal cell growth” (AGOURON PHARMACEUTICALS, INC., priority 2004, published 2006).
pIC50: −log10 of the molar value. Values joined by “and” are separate entries in the source; they are usually repeats but may differ in a detail not shown here. Identical values can stand only once. Like-named read-outs stand apart in the source and are kept apart here. Marks after values point to notes of the source that are not given here.

What was measured:
[1] = system: ERK phosphorylation in colon 26 cells; assay: cells; conditions: Mus musculus
[2] = Metabolites of [14C] Compound 1 in liver microsomes; type: in vitro ADME, monkey; conditions: [C-14] Compound 1 10 μM, 90 mins
Protocol: (§1) Incubations were performed in hepatocytes for 3 hours and liver microsomes for 1.5 hours and were stopped with the addition of methanol. HPLC, in conjuction with ionspray 3D iontrap mass spectrometry, and simultaneous radioactive monitoring were used to detect and identify the resulting metabolites.
(§2) This acid cleavage product is further metabolized to form hydroxylated (M 11, 16% in rat) and hydroxylated, defluorinated products (M 17, 19% in rat).

[3] = as above; type: in vitro ADME, rat; conditions: [C-14] Compound 1 10 μM, 90 mins
Protocol: as §1, §2

HT-29 colon xenograft = assay: Antitumor activity in HT-29 tumor model; type: in vivo, mice; conditions: oral 25 mg/kg once a day for 14 days
[4] = system: Colo-205 human colon xenograft; assay: Antitumor activity against human colon xenograft Colo-205
Protocol: A study was also carried out to explore the potential of an intermittent dosing strategy.

[5] = Metabolites of [14C] Compound 1 in liver microsomes; type: in vitro ADME, human; conditions: [C-14] Compound 1 10 μM, 90 mins
Protocol: as §1, §2

[6] = Maximum tolerated dose and lethality in mice
[7] = Colo-205, D19, 22, 25, 28, 31, 34, 37, 40, 43, 46, 18.8 mg/kg
[8] = Colo-205, D19, 22, 25, 28, 31, 34, 37, 40, 43, 46, 37.5 mg/kg
[9] = Colo-205, D19, 22, 25, 28, 31, 34, 37, 40, 43, 46, 75 mg/kg
[10] = Colo-205, D19, 22, 25, 28, 31, 34, 37, 40, 43, 46, 150 mg/kg
[11] = Colo-205, D19, 26, 33, 40, 47, 37.5 mg/kg
[12] = Colo-205, D19, 26, 33, 40, 47, 75 mg/kg
[13] = Colo-205, D19, 26, 33, 40, 47, 150 mg/kg
[14] = Colo-205, D19, 26, 33, 40, 47, 300 mg/kg (toxic)
[15] = Colo-205, D19-23, 26-30, 33-37, 40-44, 3.1 mg/kg
[16] = Colo-205, D19-23, 26-30, 33-37, 40-44, 6.3 mg/kg
[17] = Colo-205, D19-23, 26-30, 33-37, 40-44, 12.5 mg/kg
[18] = Colo-205, D19-23, 26-30, 33-37, 40-44, 25 mg/kg
[19] = Colo-205 colon, oral 25 mg/kg once a day for 14 days

SMILES: O=C(NOC[C@H](O)CO)c1ccc(F)c(F)c1Nc1ccc(I)cc1F [Compound 1, N-[(R)-2,3-dihydroxy-propoxy]-3,4-difluoro-2-(2-fluoro-4-iodo-phenylamino)-benzamide]
- pIC50 ([1]; Colon 26, 1 h, read-out: Cellular IC50): 9.47
- pIC50 ([1]; Colon 26, read-out: IC50, phosphorylation of MAP kinase): 9.48
- % ROI Monkey [2]: 71.38%
- % ROI Rat [3]: 52.30%
- CR (complete responder) (HT-29 colon xenograft): 0/10
- PR (partial responder) (HT-29 colon xenograft): 0/10
- Tumor Free (HT-29 colon xenograft): 0/10
- CR (complete response) [4, 7]: 0/6
- Net Log10 kill [4, 7]: 0.1
- Nonspecific Deaths [4, 7]: 0/6
- PR (partial response) [4, 7]: 0/6
- T − C [4, 7]: 29.5 days
- Tumor Free [4, 7]: 0/6
- CR (complete response) [4, 8]: 0/6
- Net Log10 kill [4, 8]: 0.6
- Nonspecific Deaths [4, 8]: 0/6
- PR (partial response) [4, 8]: 0/6
- T − C [4, 8]: 37.7 days
- Tumor Free [4, 8]: 0/6
- CR (complete response) [4, 9]: 1/6
- Net Log10 kill [4, 9]: 0.8
- Nonspecific Deaths [4, 9]: 0/6
- PR (partial response) [4, 9]: 2/6
- T − C [4, 9]: 41.5 days
- Tumor Free [4, 9]: 0/6
- CR (complete response) [4, 10]: 2/5
- Net Log10 kill [4, 10]: 0.7
- Nonspecific Deaths [4, 10]: 1/6^h
- PR (partial response) [4, 10]: 3/5
- T − C [4, 10]: 39.9 days
- Tumor Free [4, 10]: 0/5
- CR (complete response) [4, 11]: 0/6
- Net Log10 kill [4, 11]: −0.8
- Nonspecific Deaths [4, 11]: 0/6
- PR (partial response) [4, 11]: 0/6
- T − C [4, 11]: 13.1 days
- Tumor Free [4, 11]: 0/6
- CR (complete response) [4, 12]: 0/6
- Net Log10 kill [4, 12]: −0.6
- Nonspecific Deaths [4, 12]: 0/6
- PR (partial response) [4, 12]: 0/6
- T − C [4, 12]: 17.0 days
- Tumor Free [4, 12]: 0/6
- CR (complete response) [4, 13]: 1/6
- Net Log10 kill [4, 13]: 0.4
- Nonspecific Deaths [4, 13]: 0/6
- PR (partial response) [4, 13]: 1/6
- T − C [4, 13]: 35.4 days
- Tumor Free [4, 13]: 0/6
- Net Log10 kill ([4]; Colo-205, D19, 26, 33, 40, 47, 300 mg/kg): Toxic
- CR (complete response) [4, 14]: 2/3
- Nonspecific Deaths [4, 14]: 3/6^i Toxic
- PR (partial response) [4, 14]: 1/3 Toxic
- T − C [4, 14]: 60.3 Toxic days
- Tumor Free [4, 14]: 1/3 Toxic
- CR (complete response) [4, 15]: 0/6
- Net Log10 kill [4, 15]: 0.7
- Nonspecific Deaths [4, 15]: 0/6
- PR (partial response) [4, 15]: 2/6
- T − C [4, 15]: 37.8 days
- Tumor Free [4, 15]: 0/6
- CR (complete response) [4, 16]: 1/6
- Net Log10 kill [4, 16]: 1.1
- Nonspecific Deaths [4, 16]: 0/6
- PR (partial response) [4, 16]: 4/6
- T − C [4, 16]: 45.1 days
- Tumor Free [4, 16]: 0/6
- CR (complete response) [4, 17]: 1/6
- Net Log10 kill [4, 17]: 1.1
- Nonspecific Deaths [4, 17]: 0/6
- PR (partial response) [4, 17]: 4/6
- T − C [4, 17]: 45.9 days
- Tumor Free [4, 17]: 0/6
- CR (complete response) [4, 18]: 6/6
- Net Log10 kill [4, 18]: 1.8
- Nonspecific Deaths [4, 18]: 0/6
- PR (partial response) [4, 18]: 0/6
- T − C [4, 18]: 59.3 days
- Tumor Free [4, 18]: 2/6
- CR (complete response) ([4]; Colo-205, D19-46, 3.1 mg/kg): 0/6
- Net Log10 kill ([4]; Colo-205, D19-46, 3.1 mg/kg): 1.0
- Nonspecific Deaths ([4]; Colo-205, D19-46, 3.1 mg/kg): 0/6
- PR (partial response) ([4]; Colo-205, D19-46, 3.1 mg/kg): 5/6
- T − C ([4]; Colo-205, D19-46, 3.1 mg/kg): 45.5 days
- Tumor Free ([4]; Colo-205, D19-46, 3.1 mg/kg): 0/6
- CR (complete response) ([4]; Colo-205, D19-46, 6.3 mg/kg): 2/6
- Net Log10 kill ([4]; Colo-205, D19-46, 6.3 mg/kg): 1.1
- Nonspecific Deaths ([4]; Colo-205, D19-46, 6.3 mg/kg): 0/6
- PR (partial response) ([4]; Colo-205, D19-46, 6.3 mg/kg): 4/6
- T − C ([4]; Colo-205, D19-46, 6.3 mg/kg): 46.7 days
- Tumor Free ([4]; Colo-205, D19-46, 6.3 mg/kg): 0/6
- CR (complete response) ([4]; Colo-205, D19-46, 12.5 mg/kg): 6/6
- Net Log10 kill ([4]; Colo-205, D19-46, 12.5 mg/kg): 2.3
- Nonspecific Deaths ([4]; Colo-205, D19-46, 12.5 mg/kg): 0/6
- PR (partial response) ([4]; Colo-205, D19-46, 12.5 mg/kg): 0/6
- T − C ([4]; Colo-205, D19-46, 12.5 mg/kg): 70.1 days
- Tumor Free ([4]; Colo-205, D19-46, 12.5 mg/kg): 0/6
- CR (complete response) ([4]; Colo-205, D19-46, 25 mg/kg): 5/6
- Net Log10 kill ([4]; Colo-205, D19-46, 25 mg/kg): 2.0
- Nonspecific Deaths ([4]; Colo-205, D19-46, 25 mg/kg): 0/6
- PR (partial response) ([4]; Colo-205, D19-46, 25 mg/kg): 1/6
- T − C ([4]; Colo-205, D19-46, 25 mg/kg): 63.9 days
- Tumor Free ([4]; Colo-205, D19-46, 25 mg/kg): 1/6
- CR (complete responder) [4, 19]: 4/10
- PR (partial responder) [4, 19]: 5/10
- T − C [4, 19]: 10.8 days
- Tumor Free [4, 19]: 3/10
- % ROI Human [5]: 77.36%
- MTD at 14 days ([6]; BALB/c and SCID, mouse, in vivo, po): 25 mg/kg/day and 25 mg/kg
- deaths or weight loss ([6]; mice, 25 mg/kg oral daily for 14 days): no deaths or weight loss
- LD10 ([6]; mice, IV regimen): 100 mg/kg
- Deaths ([6]; mice, oral daily dosing of 50 mg/kg, sixth day of treatment): 5 out of 8
